Laboratory results taken from the NIST ThermoML archive (doi:10.1021/acs.jced.7b00773).
± gives the expanded uncertainty stated by the source.

Conditions: Liquid; for viscosity: Concentric cylinders viscometry

CCCCCCn1cc[n+](C)c1.N#C[B-](C#N)(C#N)C#N [1-hexyl-3-methylimidazolium tetracyanoborate]
100 kPa
Conditions | viscosity [mPa·s]
293.15 K | 63.69 ± 3
303.15 K | 38.1 ± 1.8
313.15 K | 24.73 ± 1.1
323.15 K | 17.12 ± 0.8
333.15 K | 12.48 ± 0.58
343.15 K | 9.467 ± 0.44
353.15 K | 7.423 ± 0.34
363.15 K | 5.982 ± 0.28
373.15 K | 4.929 ± 0.23

Conditions | mass density [kg/m3]
293.15 K, 100 kPa, Vibrating tube method | 994.4 ± 2.2
303.15 K, 100 kPa, Vibrating tube method | 987.3 ± 2.2
311.8 K, 10000 kPa, Bellows volumetry | 986.2 ± 2.5
311.8 K, 20000 kPa, Bellows volumetry | 991.5 ± 2.5
311.8 K, 30000 kPa, Bellows volumetry | 996.5 ± 2.5
311.8 K, 40000 kPa, Bellows volumetry | 1001.3 ± 2.5
311.8 K, 50000 kPa, Bellows volumetry | 1005.9 ± 2.5
311.8 K, 60000 kPa, Bellows volumetry | 1010.3 ± 2.5
311.8 K, 70000 kPa, Bellows volumetry | 1014.5 ± 2.5
311.8 K, 80000 kPa, Bellows volumetry | 1018.6 ± 2.5
311.8 K, 90000 kPa, Bellows volumetry | 1022.6 ± 2.5
311.8 K, 100000 kPa, Bellows volumetry | 1026.5 ± 2.5
311.8 K, 110000 kPa, Bellows volumetry | 1030.2 ± 2.5
311.8 K, 120000 kPa, Bellows volumetry | 1034 ± 2.5
311.8 K, 130000 kPa, Bellows volumetry | 1037.6 ± 2.5
311.8 K, 140000 kPa, Bellows volumetry | 1041.1 ± 2.5
311.8 K, 150000 kPa, Bellows volumetry | 1044.6 ± 2.5
311.8 K, 160000 kPa, Bellows volumetry | 1047.9 ± 2.5
311.8 K, 170000 kPa, Bellows volumetry | 1051.2 ± 2.5
311.8 K, 180000 kPa, Bellows volumetry | 1054.4 ± 2.5
311.8 K, 190000 kPa, Bellows volumetry | 1057.6 ± 2.5
311.8 K, 200000 kPa, Bellows volumetry | 1060.7 ± 2.5
313.15 K, 100 kPa, Vibrating tube method | 980.1 ± 2.2
323.15 K, 100 kPa, Vibrating tube method | 973 ± 2.2
331.8 K, 10000 kPa, Bellows volumetry | 972.5 ± 2.5
331.8 K, 20000 kPa, Bellows volumetry | 978.1 ± 2.5
331.8 K, 30000 kPa, Bellows volumetry | 983.3 ± 2.5
331.8 K, 40000 kPa, Bellows volumetry | 988.5 ± 2.5
331.8 K, 50000 kPa, Bellows volumetry | 993.3 ± 2.5
331.8 K, 60000 kPa, Bellows volumetry | 998 ± 2.5
331.8 K, 70000 kPa, Bellows volumetry | 1002.3 ± 2.5
331.8 K, 80000 kPa, Bellows volumetry | 1006.7 ± 2.5
331.8 K, 90000 kPa, Bellows volumetry | 1010.8 ± 2.5
331.8 K, 100000 kPa, Bellows volumetry | 1014.9 ± 2.5
331.8 K, 110000 kPa, Bellows volumetry | 1018.8 ± 2.5
331.8 K, 120000 kPa, Bellows volumetry | 1022.6 ± 2.5
331.8 K, 130000 kPa, Bellows volumetry | 1026.4 ± 2.5
331.8 K, 140000 kPa, Bellows volumetry | 1030 ± 2.5
331.8 K, 150000 kPa, Bellows volumetry | 1033.5 ± 2.5
331.8 K, 160000 kPa, Bellows volumetry | 1037 ± 2.5
331.8 K, 170000 kPa, Bellows volumetry | 1040.4 ± 2.5
331.8 K, 180000 kPa, Bellows volumetry | 1043.7 ± 2.5
331.8 K, 190000 kPa, Bellows volumetry | 1047 ± 2.5
331.8 K, 200000 kPa, Bellows volumetry | 1050.2 ± 2.5
333.15 K, 100 kPa, Vibrating tube method | 966 ± 2.2
343.15 K, 100 kPa, Vibrating tube method | 959.1 ± 2.2
351.6 K, 10000 kPa, Bellows volumetry | 959.1 ± 2.5
351.6 K, 20000 kPa, Bellows volumetry | 965.1 ± 2.5
351.6 K, 30000 kPa, Bellows volumetry | 970.6 ± 2.5
351.6 K, 40000 kPa, Bellows volumetry | 976 ± 2.5
351.6 K, 50000 kPa, Bellows volumetry | 981 ± 2.5
351.6 K, 60000 kPa, Bellows volumetry | 985.9 ± 2.5
351.6 K, 70000 kPa, Bellows volumetry | 990.5 ± 2.5
351.6 K, 80000 kPa, Bellows volumetry | 995.1 ± 2.5
351.6 K, 90000 kPa, Bellows volumetry | 999.4 ± 2.5
351.6 K, 100000 kPa, Bellows volumetry | 1003.6 ± 2.5
351.6 K, 110000 kPa, Bellows volumetry | 1007.6 ± 2.5
351.6 K, 120000 kPa, Bellows volumetry | 1011.5 ± 2.5
351.6 K, 130000 kPa, Bellows volumetry | 1015.4 ± 2.5
351.6 K, 140000 kPa, Bellows volumetry | 1019.2 ± 2.5
351.6 K, 150000 kPa, Bellows volumetry | 1022.9 ± 2.5
351.6 K, 160000 kPa, Bellows volumetry | 1026.4 ± 2.5
351.6 K, 170000 kPa, Bellows volumetry | 1029.9 ± 2.5
351.6 K, 180000 kPa, Bellows volumetry | 1033.3 ± 2.5
351.6 K, 190000 kPa, Bellows volumetry | 1036.7 ± 2.5
351.6 K, 200000 kPa, Bellows volumetry | 1040 ± 2.5
353.15 K, 100 kPa, Vibrating tube method | 952.2 ± 2.2
363.15 K, 100 kPa, Vibrating tube method | 945.4 ± 2.2
371.8 K, 10000 kPa, Bellows volumetry | 945.8 ± 2.5
371.8 K, 20000 kPa, Bellows volumetry | 952 ± 2.5
371.8 K, 30000 kPa, Bellows volumetry | 957.9 ± 2.5
371.8 K, 40000 kPa, Bellows volumetry | 963.6 ± 2.5
371.8 K, 50000 kPa, Bellows volumetry | 969 ± 2.5
371.8 K, 60000 kPa, Bellows volumetry | 974 ± 2.5
371.8 K, 70000 kPa, Bellows volumetry | 978.8 ± 2.5
371.8 K, 80000 kPa, Bellows volumetry | 983.6 ± 2.5
371.8 K, 90000 kPa, Bellows volumetry | 988.1 ± 2.5
371.8 K, 100000 kPa, Bellows volumetry | 992.4 ± 2.5
371.8 K, 110000 kPa, Bellows volumetry | 996.7 ± 2.5
371.8 K, 120000 kPa, Bellows volumetry | 1000.8 ± 2.5
371.8 K, 130000 kPa, Bellows volumetry | 1004.8 ± 2.5
371.8 K, 140000 kPa, Bellows volumetry | 1008.7 ± 2.5
371.8 K, 150000 kPa, Bellows volumetry | 1012.5 ± 2.5
371.8 K, 160000 kPa, Bellows volumetry | 1016.1 ± 2.5
371.8 K, 170000 kPa, Bellows volumetry | 1019.7 ± 2.5
371.8 K, 180000 kPa, Bellows volumetry | 1023.3 ± 2.5
371.8 K, 190000 kPa, Bellows volumetry | 1026.7 ± 2.5
371.8 K, 200000 kPa, Bellows volumetry | 1030.1 ± 2.5
373.15 K, 100 kPa, Vibrating tube method | 938.7 ± 2.2
392 K, 10000 kPa, Bellows volumetry | 932.8 ± 2.5
392 K, 20000 kPa, Bellows volumetry | 939.4 ± 2.5
392 K, 30000 kPa, Bellows volumetry | 945.7 ± 2.5
392 K, 40000 kPa, Bellows volumetry | 951.6 ± 2.5
392 K, 50000 kPa, Bellows volumetry | 957.2 ± 2.5
392 K, 60000 kPa, Bellows volumetry | 962.5 ± 2.5
392 K, 70000 kPa, Bellows volumetry | 967.6 ± 2.5
392 K, 80000 kPa, Bellows volumetry | 972.6 ± 2.5
392 K, 90000 kPa, Bellows volumetry | 977.3 ± 2.5
392 K, 100000 kPa, Bellows volumetry | 981.8 ± 2.5
392 K, 110000 kPa, Bellows volumetry | 986.3 ± 2.5
392 K, 120000 kPa, Bellows volumetry | 990.5 ± 2.5
392 K, 130000 kPa, Bellows volumetry | 994.6 ± 2.5
392 K, 140000 kPa, Bellows volumetry | 998.6 ± 2.5
392 K, 150000 kPa, Bellows volumetry | 1002.5 ± 2.5
392 K, 160000 kPa, Bellows volumetry | 1006.3 ± 2.5
392 K, 170000 kPa, Bellows volumetry | 1010 ± 2.5
392 K, 180000 kPa, Bellows volumetry | 1013.6 ± 2.5
392 K, 190000 kPa, Bellows volumetry | 1017.2 ± 2.5
392 K, 200000 kPa, Bellows volumetry | 1020.6 ± 2.5
412.1 K, 10000 kPa, Bellows volumetry | 920.1 ± 2.5
412.1 K, 20000 kPa, Bellows volumetry | 927 ± 2.5
412.1 K, 30000 kPa, Bellows volumetry | 933.7 ± 2.5
412.1 K, 40000 kPa, Bellows volumetry | 939.9 ± 2.5
412.1 K, 50000 kPa, Bellows volumetry | 945.8 ± 2.5
412.1 K, 60000 kPa, Bellows volumetry | 951.4 ± 2.5
412.1 K, 70000 kPa, Bellows volumetry | 956.7 ± 2.5
412.1 K, 80000 kPa, Bellows volumetry | 961.8 ± 2.5
412.1 K, 90000 kPa, Bellows volumetry | 966.8 ± 2.5
412.1 K, 100000 kPa, Bellows volumetry | 971.4 ± 2.5
412.1 K, 110000 kPa, Bellows volumetry | 976 ± 2.5
412.1 K, 120000 kPa, Bellows volumetry | 980.4 ± 2.5
412.1 K, 130000 kPa, Bellows volumetry | 984.7 ± 2.5
412.1 K, 140000 kPa, Bellows volumetry | 988.8 ± 2.5
412.1 K, 150000 kPa, Bellows volumetry | 992.8 ± 2.5
412.1 K, 160000 kPa, Bellows volumetry | 996.7 ± 2.5
412.1 K, 170000 kPa, Bellows volumetry | 1000.6 ± 2.5
412.1 K, 180000 kPa, Bellows volumetry | 1004.3 ± 2.5
412.1 K, 190000 kPa, Bellows volumetry | 1007.9 ± 2.5
412.1 K, 200000 kPa, Bellows volumetry | 1011.5 ± 2.5
